Measured values reported in patent US20140073637A1, “AMINO-SUBSTITUTED-ALKYLOXY-BENZO[E]PYRIDO[4,3-B]INDOLE DERIVATIVES AS NEW POTENT KINASE INHIBITORS” (INSTITUT CURIE, priority 2011, published 2014).

Tests used:
[1] = target: Chk2 (Homo sapiens, UniProt O96017); experiment: Kinase profiling in vitro at 1 μM; type: biochemical; details: compound at 1 μM, read-out: percentage of remaining activity of recombinant kinase
Method: (§1) The specificity of C14 was tested, in vitro, against 121 kinases representative of the kinome. Assays run in duplicate, at the concentration of 1 μM, were performed by MRC (Dundee, UK). Results are represented in FIG. 1. The main targets are highlighted in FIG. 1B.
(§2) In addition, the percentage of remaining activity of recombinant kinases Aurora kinases A and B and Checkpoint kinases 1 and 2 at the concentration of 1 μM of C1, C2 and C14 have been determined.
(§3) The profiling was performed at the MRC (Dundee University), in duplicate, on a set of 121 kinases. The panel is representative of the major different classes of kinases. Compounds were used at the concentration of 1 μM. In vitro, IC50 were determined on recombinant kinases by Reaction biology Corp (USA).

[2] = target: T1, Aurora B (Homo sapiens, UniProt Q96GD4); experiment: Kinase profiling in vitro at 1 μM; type: biochemical; details: compound at 1 μM, read-out: percentage of remaining activity of recombinant kinase
Method: as §1, §2, §3

[3] = target: T2, CHK1 (Homo sapiens, UniProt O14757); experiment: Kinase profiling in vitro at 1 μM; type: biochemical; details: Chk1; compound at 1 μM; read-out: percentage of remaining activity of recombinant kinase
T2 sequence (O14757 1-476): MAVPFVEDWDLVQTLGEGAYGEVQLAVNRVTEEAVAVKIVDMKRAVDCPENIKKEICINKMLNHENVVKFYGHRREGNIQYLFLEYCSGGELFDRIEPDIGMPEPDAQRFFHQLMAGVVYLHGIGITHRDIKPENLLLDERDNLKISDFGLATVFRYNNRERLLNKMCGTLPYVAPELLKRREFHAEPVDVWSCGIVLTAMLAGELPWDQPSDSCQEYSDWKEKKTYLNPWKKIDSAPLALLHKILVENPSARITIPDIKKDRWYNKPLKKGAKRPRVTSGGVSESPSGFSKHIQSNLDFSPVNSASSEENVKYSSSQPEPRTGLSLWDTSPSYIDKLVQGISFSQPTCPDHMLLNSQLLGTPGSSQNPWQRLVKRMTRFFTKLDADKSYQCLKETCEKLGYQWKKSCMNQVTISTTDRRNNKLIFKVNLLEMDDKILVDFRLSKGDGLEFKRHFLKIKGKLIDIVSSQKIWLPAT
Method: as §1, §2, §3

[4] = target: T1, Aurora B; experiment: Aurora B inhibition in cells: Histone H3 Ser10 phosphorylation by western blotting and immunofluorescence; type: cell-based; design: endogenous in cells; host or cells: U2OS (human osteosarcoma); HeLa also used for the maleate salts; details: U2OS mitotic extracts; 1 μM overnight; western blotting (FIG. 3)
Method: Actin is used as control of quantity. Cells were incubated overnight in the presence of either C1, or C2 or CH21 or C14 or DMSO(C: control). All compounds were tested at 1 μM. Proteins were detected by western blotting.
Cells were incubated with the different molecules and Aurora B inhibition is estimated by western blotting (WB) and immuno fluorescent experiments. Histone H3 phosphorylated on Ser10 is used as a marker of Aurora B kinase activity and actin as an internal control. Each WB signal is compared to the control in the absence of compound. The efficiency estimated by WB is indicated by +++: very efficient inhibition to −: no inhibition. Immunofluorescent labelling of a mitotic cell by Histone H3 illustrates Aurora B kinase activity. However immunofluorescence is less sensitive than WB. Active molecules are underlined by a square and the intensity of the line indicates the efficiency of inhibition.
FIG. 10A: Immunofluorescence with phospho-Ser10-Histone H3 antibodies. Either the percentage of positive phospho-Ser10-Histone H3 is indicated or a representative mitosis shown. […] Immunofluorescent assays were realized with a specific phospho-antibody and mitotic U2OS cells are recognized by their DNA content stained with Hoechst. On the right, a representative cell or the percentage of H3-S10-P labelled mitosis.
(§4) FIG. 10B: Immunoblotting analysis of histone H3 phosphorylation. U2OS cells were incubated overnight with Nocodazole (50 nM) in the presence of either DMSO (Co) or Compounds (1 μM). Cells were then collected and lyzed. Identical amounts of the lyzed cell samples were run on 18% acrylamide gel containing SDS.
as §4, with “FIGS. 11B and 11C:” for “FIG. 10B:”, “U2OS and HeLa” for “U2OS”
Cells were incubated with the different molecules and Aurora B inhibition is estimated by western blotting and immunofluorescent experiments. Histone H3 phosphorylated on Ser10 is used as a marker of Aurora B kinase activity and actin as an internal control. Results are represented in FIGS. 4 and 10 and Table 3.
Cells were treated by compounds, harvested and lyzed in 9M urea then supplemented with Laemmli sample buffer. Cell extracts were subjected to SDS-PAGE and transferred to nitrocellulose filter (GE Healthcare). After blocking with 5% non-fat milk in PBS for at least 1 hour, the membranes were incubated with the primary antibodies. The following antibodies were used: phospho-Histone H3 Ser10 (1:2000, Upstate Biotechnology), anti LAST1 (Cell signalling), anti Aurora B (epitomics) and anti alpha-tubulin (Sigma) Anti-rabbit horseradish peroxidase (1:5000, GE Healthcare) was used as secondary antibodies. Bands were visualized by ECL technique (Amersham Bioscience).
Cells were seeded on glass coverslips and treated by compounds (1 μM) overnight. After treatment, cells were fixed in 4% formaldhehyde at 37° C. for 15 minutes, then permeabilized for 5 minutes with Triton X-100 in PBS.

[5] = target: T3, Aurora A (Homo sapiens, UniProt O14965); experiment: Kinase profiling in vitro at 1 μM; type: biochemical; details: Aurora A; compound at 1 μM; read-out: percentage of remaining activity of recombinant kinase
T3 sequence (O14965 1-403): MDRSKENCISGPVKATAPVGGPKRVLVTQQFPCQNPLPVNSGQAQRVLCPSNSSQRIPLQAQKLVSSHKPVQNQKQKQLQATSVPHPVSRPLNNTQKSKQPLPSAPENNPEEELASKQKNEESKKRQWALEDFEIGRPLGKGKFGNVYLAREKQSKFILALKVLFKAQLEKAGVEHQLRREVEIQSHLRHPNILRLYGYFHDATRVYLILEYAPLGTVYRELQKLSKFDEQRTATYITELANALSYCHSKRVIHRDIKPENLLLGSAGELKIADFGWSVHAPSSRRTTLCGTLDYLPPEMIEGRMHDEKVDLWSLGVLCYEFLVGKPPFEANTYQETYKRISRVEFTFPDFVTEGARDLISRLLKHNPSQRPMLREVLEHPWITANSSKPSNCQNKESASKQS
Method: Assays were run in vitro against recombinant kinases. The activity is reported for each kinase, grey histograms for CH21, white for C14 and gradation grey for C1. […] Therefore, C1 and C14 affect differently the Aurora kinase family.
as §1, §2, §3

[6] = system: 121 kinases; experiment: Kinase profiling on a set of 121 kinases; type: biochemical; details: kinases presenting the highest inhibitions; lists not exhaustive
Method: FIG. 1A: The potential inhibition of C14 was tested against 121 kinases, in vitro, at the concentration of 1 μM. The kinase activities, in the presence of C14, are represented, each kinase being represented by a vertical bar. Only 18 kinases have less than 30% activity in the presence of C14.
as §1, §3

[7] = system: HeLa cells; details: previously reported in Hoang et al, 2009, indicated for comparison, read-out: IC50 (in nM), antiproliferative assay; cited from earlier work

T1 sequence (Q96GD4 whole entry): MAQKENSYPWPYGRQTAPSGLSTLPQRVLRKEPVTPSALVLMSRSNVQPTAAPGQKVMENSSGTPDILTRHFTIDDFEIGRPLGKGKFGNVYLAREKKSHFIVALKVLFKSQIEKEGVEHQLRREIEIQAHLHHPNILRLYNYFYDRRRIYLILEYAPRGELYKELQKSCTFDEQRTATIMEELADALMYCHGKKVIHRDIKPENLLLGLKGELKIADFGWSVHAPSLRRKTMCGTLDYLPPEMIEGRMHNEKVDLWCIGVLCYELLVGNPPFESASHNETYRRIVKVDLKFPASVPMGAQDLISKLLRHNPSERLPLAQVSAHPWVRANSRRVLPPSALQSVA
Chk2, sequence (O96017 whole entry, species assumed): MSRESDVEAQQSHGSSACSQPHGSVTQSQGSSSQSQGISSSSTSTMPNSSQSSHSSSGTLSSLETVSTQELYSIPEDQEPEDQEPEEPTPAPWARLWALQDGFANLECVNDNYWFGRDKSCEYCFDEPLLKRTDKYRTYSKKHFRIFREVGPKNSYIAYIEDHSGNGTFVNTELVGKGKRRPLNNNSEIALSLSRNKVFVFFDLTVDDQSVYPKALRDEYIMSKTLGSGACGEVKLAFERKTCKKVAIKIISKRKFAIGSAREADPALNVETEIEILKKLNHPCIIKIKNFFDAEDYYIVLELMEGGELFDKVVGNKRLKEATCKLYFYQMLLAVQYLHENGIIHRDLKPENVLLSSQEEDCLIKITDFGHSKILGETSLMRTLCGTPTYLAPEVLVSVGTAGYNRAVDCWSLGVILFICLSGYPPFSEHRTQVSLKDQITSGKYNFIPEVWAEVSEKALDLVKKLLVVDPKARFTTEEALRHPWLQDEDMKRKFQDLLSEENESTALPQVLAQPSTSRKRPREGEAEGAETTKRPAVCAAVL

SMILES: COc1ccc2c(ccc3[nH]c4c(C)c[nH]c(=O)c4c32)c1 [Compound C2, reference compound]
- remaining activity at 1 µM [1]: 3%
- remaining activity at 1 µM [2]: 24%
- remaining activity at 1 µM [3]: 12%
- Aurora B inhibition in cellulo (Histone H3 phosphorylation, in words) [4]: mild inhibitory activity
- remaining activity at 1 µM [5]: 11%
- Known Targets (%) [6]: Aurora A Aurora B Chk1 Chk2 Flt3
- IC50 [7]: 1160 ± 150 nM
